From ChEMBL document CHEMBL1955866, “New cyclic peptides with osteoblastic proliferative activity from Dianthus superbus” (Bioorg Med Chem Lett, 2012) come the findings set out here.

Molecules are shown by their SMILES. Where a SMILES comes first, the peptide text is derived from it.

Holding throughout (type): functional, cell-based
Assay [1] can be described thus: Osteoblastic proliferative activity in […] MC3T3-E1 cells at 10^-2 mM by MTT assay.
Assay [2] can be described thus: Osteoblastic proliferative activity in […] MC3T3-E1 cells at 10^-5 mM by MTT assay. (Tetrazolium assays rely on reduction of a dye to a coloured formazan, in cell work by metabolically active cells.)
Assay [3] in a line: Osteoblastic proliferative activity in rat MC3T3-E1 cells at 10^-4 mM by MTT assay.
A short description of assay [4]: Osteoblastic proliferative activity in […] MC3T3-E1 cells at 10^-6 mM by MTT assay.
Assay [5] can be described thus: Osteoblastic proliferative activity in […] MC3T3-E1 cells at 10^-3 mM by MTT assay.

As to `[F-].[Na+]`, the Activity in assay [1] stood at 46.2%.

For `CC(C)C[C@@H]1NC(=O)[C@H]([C@@H](C)O)NC(=O)[C@H](CC(C)C)NC(=O)[C@@H]2CCCN2C(=O)CNC(=O)[C@H](Cc2ccccc2)NC1=O` (cyclo(FGPLTL)), the Activity is 13.7% in assay [1]; 38.2% in assay [2]; 21.7% in assay [3]; 25.4% in assay [4]; 3.9% in assay [5].

For `CC[C@H](C)[C@@H]1NC(=O)[C@H]([C@@H](C)O)NC(=O)[C@H](C(C)C)NC(=O)[C@@H]2CCCN2C(=O)CNC(=O)[C@H](Cc2ccccc2)NC1=O` (cyclo(FGPVTI)), the Activity in assay [1] was 22.5%; in assay [2], 33.9%; in assay [3] it was 26.3%; in assay [4] it was 17.2%; in assay [5], 17%.
